Assay results reported in ChEMBL document CHEMBL3044978, “Efficacy of acibenzolar-S-methyl and two strobilurins, azoxystrobin and trifloxystrobin, for the control of corky root of tomato and verticillium wilt of eggplant” (Crop Prot, 2006).
Active and inactive are the calls of the source. No cut-off for these calls is given here.

What was measured:
Verticillium dahliae [1] = assay: Fungicidal activity against Verticillium dahliae infected eggplant assessed as reduction in severity of external symptoms at 100 to 250 mg/l after 80 to 120 days under field condition relative to untreated control; format: functional; parameters: scale not given: the % may be the effect or the level left
[2] = tested on: Pseudopyrenochaeta lycopersici; assay: Fungicidal activity against Pyrenochaeta lycopersici infected tomato plant assessed as diseased root surface at 87.5 to 100 mg/l after 120 days under greenhouse condition relative to untreated control; format: functional
Solanum melongena [3] = assay: Phytotoxicity in Solanum melongena (eggplant) assessed as leaf chlorosis at 100 to 250 mg/l after 80 to 120 days under field condition; format: organism-based; details: in vivo
Verticillium dahliae [4] = assay: Fungicidal activity against Verticillium dahliae infected eggplant assessed as wilted leaves at 87.5 to 100 mg/l after 80 days under greenhouse condition relative to untreated control; format: functional
Solanum melongena [5] = assay: Phytotoxicity in Solanum melongena (eggplant) assessed as plant stunting at 87.5 to 100 mg/l after 80 days under greenhouse condition; format: organism-based; details: in vivo, 1920 h
Verticillium dahliae [6] = assay: Fungicidal activity against Verticillium dahliae infected eggplant assessed as vascular discoloration at 100 to 250 mg/l after 120 days under field condition relative to untreated control; format: functional, organism-based
Solanum lycopersicum [7] = assay: Phytotoxicity in Solanum lycopersicum (tomato) plant assessed as leaf chlorosis at 100 to 250 mg/l after 120 days under field condition; format: organism-based; details: in vivo, 2880 h
Solanum lycopersicum [8] = assay: Phytotoxicity in Solanum lycopersicum (tomato) plant assessed as plant stunting at 87.5 to 100 mg/l after 120 days under greenhouse condition; format: organism-based; details: in vivo, 2880 h
[9] = tested on: Pseudopyrenochaeta lycopersici; assay: Fungicidal activity against Pyrenochaeta lycopersici infected tomato plant assessed as diseased root surface at 100 to 250 mg/l after 100 days under field condition relative to untreated control; format: functional
Solanum lycopersicum [10] = assay: Phytotoxicity in Solanum lycopersicum (tomato) plant assessed as plant stunting at 12.5 to 87.5 mg/l after 120 days under greenhouse condition; format: organism-based; details: in vivo, 2880 h
Solanum melongena [11] = assay: Induction of systemic acquired resistance activity in Solanum melongena (eggplant) infected with Verticillium dahliae assessed as reduction in severity of external symptoms at 12.5 mg/l after 80 to 120 days under field condition relative to untreated control; format: functional; parameters: scale not given: the % may be the effect or the level left
Solanum melongena [12] = assay: Phytotoxicity in Solanum melongena (eggplant) assessed as leaf chlorosis at 12.5 mg/l after 80 to 120 days under field condition; format: organism-based; details: in vivo
Solanum melongena [13] = assay: Phytotoxicity in Solanum melongena (eggplant) assessed as leaf chlorosis at 12.5 to 87.5 mg/l after 80 days under greenhouse condition; format: organism-based; details: in vivo, 1920 h
Solanum lycopersicum [14] = assay: Phytotoxicity in Solanum lycopersicum (tomato) plant assessed as leaf chlorosis at 12.5 mg/l after 120 days under field condition; format: organism-based; details: in vivo, 2880 h
Solanum melongena [15] = assay: Phytotoxicity in Solanum melongena (eggplant) assessed as plant stunting at 12.5 to 87.5 mg/l after 80 days under greenhouse condition; format: organism-based; details: in vivo, 1920 h
Solanum melongena [16] = assay: Induction of systemic acquired resistance activity in Solanum melongena (eggplant) infected with Verticillium dahliae assessed as vascular discoloration at 12.5 mg/l after 120 days under field condition relative to untreated control; format: functional, organism-based
Solanum lycopersicum [17] = assay: Induction of systemic acquired resistance activity in Solanum lycopersicum (tomato) plant infected with Pyrenochaeta lycopersici assessed as diseased root surface at 12.5 mg/l after 100 days under field condition relative to untreated control; format: functional
Solanum lycopersicum [18] = assay: Phytotoxicity in Solanum lycopersicum (tomato) plant assessed as leaf chlorosis at 12.5 to 87.5 mg/l after 120 days under greenhouse condition; format: organism-based; details: in vivo, 2880 h
Solanum lycopersicum [19] = assay: Phytotoxicity in Solanum lycopersicum (tomato) plant assessed as plant stunting after 120 days under greenhouse condition; format: organism-based; details: in vivo, 2880 h
[20] = tested on: Pseudopyrenochaeta lycopersici; assay: Fungicidal activity against Pyrenochaeta lycopersici infected tomato plant assessed as diseased root surface after 120 days under greenhouse condition relative to untreated control; format: functional
Verticillium dahliae [21] = assay: (§1) Fungicidal activity against Verticillium dahliae infected eggplant assessed as vascular discoloration applied as dipping of seedling roots into fungicide water suspension before transplanting and one soil drench post transplanting after 120 days under field condition relative to untreated control; format: functional, organism-based
[22] = tested on: Pseudopyrenochaeta lycopersici; assay: Fungicidal activity against Pyrenochaeta lycopersici infected tomato plant assessed as diseased root surface applied as one soil drench and two foliar sprays post transplanting after 100 days under field condition relative to untreated control; format: functional
Verticillium dahliae [23] = assay: (§2) Fungicidal activity against Verticillium dahliae infected eggplant assessed as vascular discoloration applied as dipping of seedling roots into fungicide water suspension before transplanting and two soil drenches post transplanting after 120 days under field condition relative to untreated control; format: functional, organism-based
Verticillium dahliae [24] = assay: as §1, with “reduction in severity of external symptoms” for “vascular discoloration”, “after 80 to” for “after”; format: functional; parameters: scale not given: the % may be the effect or the level left
Solanum lycopersicum [25] = assay: Phytotoxicity in Solanum lycopersicum (tomato) plant assessed as plant stunting during early growth stage after 120 days under field condition; format: organism-based; details: in vivo, 2880 h
Solanum melongena [26] = assay: Phytotoxicity in Solanum melongena (eggplant) assessed as plant stunting during early growth stage after 80 to 120 days under field condition; format: organism-based; details: in vivo
Verticillium dahliae [27] = assay: Fungicidal activity against Verticillium dahliae infected eggplant assessed as vascular discoloration applied as one soil drench and two foliar sprays post transplanting after 120 days under field condition relative to untreated control; format: functional, organism-based
Verticillium dahliae [28] = assay: Fungicidal activity against Verticillium dahliae infected eggplant assessed as reduction in severity of external symptoms applied as one soil drench and two foliar sprays post transplanting after 80 to 120 days under field condition relative to untreated control; format: functional; parameters: scale not given: the % may be the effect or the level left
Verticillium dahliae [29] = assay: as §2, with “reduction in severity of external symptoms” for “vascular discoloration”, “after 80 to” for “after”; format: functional; parameters: scale not given: the % may be the effect or the level left
Solanum melongena [30] = assay: Phytotoxicity in Solanum melongena (eggplant) assessed as plant stunting after 80 days under greenhouse condition; format: organism-based; details: in vivo, 1920 h
[31] = tested on: Pseudopyrenochaeta lycopersici; assay: as §2, with “Pyrenochaeta lycopersici” for “Verticillium dahliae”, “tomato plant” for “eggplant”, “diseased root surface” for “vascular discoloration”, “100” for “120”; format: functional
[32] = tested on: Pseudopyrenochaeta lycopersici; assay: Fungicidal activity against Pyrenochaeta lycopersici infected tomato plant assessed as diseased root surface applied as dipping of seedling roots into fungicide water suspension before transplanting and one soil drench post transplanting after 100 days under field condition relative to untreated control; format: functional
Verticillium dahliae [33] = assay: Fungicidal activity against Verticillium dahliae infected eggplant assessed as wilted leaves after 80 days under greenhouse condition relative to untreated control; format: functional

Question: Which results are given for `CO/N=C(\C(=O)OC)c1ccccc1CO/N=C(\C)c1cccc(C(F)(F)F)c1`?
Answer: Activity (Verticillium dahliae [1]): 17.6%; Activity [2]: 93.3%; Activity (Solanum melongena [3]): Non-toxic; Activity (Verticillium dahliae [4]): 78.1%; Activity (Solanum melongena [5]): Non-toxic; Activity (Verticillium dahliae [6]): inactive; Activity (Solanum lycopersicum [7]): Non-toxic; Activity (Solanum lycopersicum [8]): Non-toxic; Activity [9]: 48.7%

Question: What does the source list for `CSC(=O)c1cccc2nnsc12` [ACIBENZOLAR-S-METHYL]?
Answer: Activity (Solanum lycopersicum [10]): Toxic; Activity (Solanum melongena [11]): 6.9%; Activity (Solanum melongena [12]): Non-toxic; Activity (Solanum melongena [13]): Toxic; Activity (Solanum lycopersicum [14]): Non-toxic; Activity (Solanum melongena [15]): Toxic; Activity (Solanum melongena [16]): inactive; Activity (Solanum lycopersicum [17]): 62.7%; Activity (Solanum lycopersicum [18]): Toxic

Question: For `CO/C=C(/C(=O)OC)c1ccccc1Oc1cc(Oc2ccccc2C#N)ncn1` [AZOXYSTROBIN], which Activity (Solanum lycopersicum [19]) is on record?
Answer: Toxic

Question: What about the Activity [20] of the same molecule?
Answer: 98.3%

Question: And the Activity (Verticillium dahliae [21])?
Answer: inactive

Question: And the Activity [22]?
Answer: 81.7%

Question: And the Activity (Verticillium dahliae [23])?
Answer: inactive

Question: And the Activity (Verticillium dahliae [24])?
Answer: 29.4%

Question: What about the Activity (Solanum lycopersicum [25]) of the same molecule?
Answer: Toxic

Question: What about the Activity (Solanum melongena [26]) of the same molecule?
Answer: Toxic

Question: What about the Activity (Verticillium dahliae [27]) of the same molecule?
Answer: inactive

Question: What about the Activity (Verticillium dahliae [28]) of the same molecule?
Answer: 24.6%

Question: What about the Activity (Verticillium dahliae [29]) of the same molecule?
Answer: 24.6%

Question: What about the Activity (Solanum melongena [30]) of the same molecule?
Answer: Toxic

Question: And the Activity [31]?
Answer: 83.7%

Question: What about the Activity [32] of the same molecule?
Answer: 73.5%

Question: What about the Activity (Verticillium dahliae [33]) of the same molecule?
Answer: 95.1%
